Patent publication US11325937B2, “Glycoside compound and preparation method therefor, composition, application, and intermediate” (SHANGHAI HUTCHISON PHARMACEUTICALS LIMITED, priority 2018, dated 2022)

How the values were obtained:
[1] = test system: rats with permanent ligation of bilateral common carotid arteries (2VO); test: Chronic cerebral ischemia model in rats with permanent ligation of bilateral common carotid arteries (2VO); format: in vivo
Source text: After obtaining the active molecules that can promote the expression of VEGF-A mRNA in the animal model of inflammatory angiogenesis, a rat model of cerebral infarction was used for further verification. Following the method as described in Longa, E. Z., Longa, E. Z., Weinstein, P. R., Carlson, S. & Commin, R. Reversible middle cerebral artery occlusion without craniectomy in rats. [J]. Stroke, 1989. 1: 84-91, an acute cerebral infarction model was established in rats with middle cerebral artery occlusion (MCAO); and following the method as described in C. dela Torre, T. Fortin, G. A. S. Park, K. S. Butler, P. Kozlowski, B. A. Pappas, H. de Socarraz, J. K. Saunders and M. T. Richard. [J]. Brain Research, 1992. 582:186-195, a chronic cerebral ischemia model was established in rats with permanent ligation of bilateral common carotid arteries (2VO). The inhibition on cerebral infarction and neuroprotection for brain injury of the active molecules screened in Effect Example 2 were verified.
In the later period of the present invention, a chronic cerebral ischemia model was established in rats with permanent ligation of bilateral common carotid arteries (2VO). TG-028 (5 mg/kg) was administered to 5 rats in each group daily by intraperitoneal injection for 3 weeks. The effects of TG-028 and the control drug Edaravone (40 mg/kg) in the rat model of chronic cerebral ischemia were observed.
3 weeks after the establishment of the rat model of 2VO chronic cerebral ischemia, the Morris water maze experiment was performed on the test rats to determine the effects of drugs on animal learning and memory. The test rats were subjected to ambient positioning and memory training for 5 days. On Day 5 of the training, a positioning navigation experiment was carried out, and the duration for each group of rats from the time of entering the water from different water entry points facing the pool wall to the time of finding the platform, that is, the escape incubation period, was recorded. On Day 6, the platform was removed and a space exploration experiment was carried out. The swimming time of the rats in the target quadrant, the dwell time in the target quadrant, the distance in the target quadrant, and the number of passes through the platform were recorded in 120 s from the time of entering water from a quadrant opposing the target quadrant. The results of the water maze positioning and navigation experiment are shown in FIG. 8 (where Sham is a sham operation group).
After permanent ligation of the bilateral common carotid arteries, a 5-day positioning training was carried out, and […] Morris water maze space exploration experiment was performed after the training.

[2] = Acute toxicity test of TG-028; format: in vivo
Protocol: In addition, an acute toxicity test of TG-028 was conducted.

[3] = test system: HUVEC-12 endothelial cells; test: Migration of HUVEC-12 endothelial cells (scratch test); format: cell-based, Human
Protocol: (§1) The experiment included seven groups. In Group 1, HUVEC-12 endothelial cells (purchased from Shanghai RongChuang Biotech Co., Ltd.) were treated directly with simple DMEM medium (Gibcol, Shanghai) containing 10% FBS (SERANA, Germany) (control). In Group 2, the endothelial cells were treated with the supernatant obtained 24 h after macrophages were cultured with DMEM medium containing 10% FBS (s-control). In Group 3, the endothelial cells cultured with DMEM medium containing 10% FBS were treated directly with TG-028 (TG-028, 10 μM). In Group 4, the endothelial cells were treated with the supernatant obtained after macrophages cultured with DMEM medium containing 10% FBS were treated and co-incubated with TG-028 for 24 h (s-TG-028, […]). In Group 5, the endothelial cells cultured with DMEM medium containing 10% FBS were treated directly with Cpd-18 (Salvianolate) (cpd-18, 10 μM). In Group 6, the endothelial cells were treated with the supernatant obtained after macrophages cultured with DMEM medium containing 10% FBS were treated and co-incubated with Cpd-18 (Salvianolate, 10 μM) for 24 h (s-cpd18). In Group 7, the endothelial cells cultured with DMEM medium containing 10% FBS were treated directly with VEGFD (Recombinant Human VEGF165, 10 ng/mL).
Human umbilical vein endothelial cells HUVEC-12 in logarithmic growth phase were counted, adjusted to a cell density of 5×10^5 cells/mL, and inoculated in 1 mL per well in a 6-well plate. The cells were conventionally cultured in an incubator to form monolayer cells of 90% confluency. The 6-well plate fully plated with cells was scratched perpendicular to the cell surface with a 200 μL pipette tip from one end to the other end of the well. The scratches were made transversely with the pipette tip being as perpendicular as possible to the bottom of the plate. […]
The medium was aspirated and the cells scratched off were washed off with PBS. […] The migration of endothelial cells was detected according to the cell scratch method and the relative migration rate was calculated. […]

[4] = test system: HUVEC-12 endothelial cells; test: Tubule formation of HUVEC-12 endothelial cells (Matrigel); format: cell-based, Human
Protocol: as §1
A 96-well plate and sterile yellow pipette tip were stored overnight in a refrigerator at −20° C. The packed Matrigel was thawed overnight in a refrigerator at 4° C. before the experiment. On the following day, the Matrigel thawed was centrifuged for a few minutes. 60 μL per well of the pre-cooled Matrigel was added to a 96-well plate in an ice bath on a ultra-clean bench, and then allowed to stand in an incubator for 1 h. After Matrigel was solidified, HUVEC-12 cells in logarithmic growth phase were taken and adjusted for the cell density. The cells were well mixed with each group of medium at a density of 5×10^4 cells/well and inoculated into a 96-well plate. […] The tube-like structure was analyzed by ImageJ image-analysis software, and the tube formation ability was evaluated using number of master junction as a quantitative index.

[5] = HUVEC-12 treated with supernatant of macrophages co-incubated 24 h with compound, 10 μM (s- groups)

## COc1ccc(CCCCO[C@@H]2O[C@H](CO)[C@@H](O)[C@H](O)[C@H]2O)cc1 [TG-028]
[1]; 3 weeks after chronic cerebral ischemia, compared with 2VO+NaCl, FIG. 10
  HE staining and Nissl staining of brain sections, hippocampal CA3 neurons (in words): neatly and densely arranged
[1]; TG-028 5 mg/kg, Edaravone 40 mg/kg, 3 weeks of administration, FIG. 8
  Morris water maze positioning and navigation: escape incubation period and total distance (in words): comparable effect
[1]; TG-028 5 mg/kg, Edaravone 40 mg/kg, 3 weeks, FIG. 9
  Morris water maze space exploration: number of passes through the platform compared with 2VO+NaCl group: increases significantly
[1]; TG-028 5 mg/kg, Edaravone 40 mg/kg, i.p. daily, after 1 week, FIG. 7
  change in body weight compared with sham operation group (in words): no difference in weight change between the treatment group with TG-028 and the sham operation group
[2]; 616.59/2.61
  therapeutic index LD50/ED50: 236
[2]; in vivo, acute toxicity test
  LD50: 617 mg/kg
[3]; [5]
  effect on migration of endothelial cells (in words): comparable effect on the migration of endothelial cells as VEGF
[3]; direct treatment of HUVEC-12, 24 h, compounds 10 μM, VEGF165 10 ng/mL, vs control medium
  effect on migration of endothelial cells (in words): significant effect on the migration of endothelial cells
[4]; [5]
  effect on tube formation of endothelial cells (in words): comparable effect on the tube formation of endothelial cells as VEGF
[4]; direct treatment of HUVEC-12, 3 h, compounds 10 μM, VEGF165 10 ng/mL, vs control medium
  effect on tube formation of endothelial cells (in words): significant effect on the tube formation of endothelial cells
